Source: patent US6258806A, “Amine derivatives of oxo- and hydroxy- substituted hydrocarbons” (Narhex Limited, priority 1992, dated 2001)

Tests used:
HIV-1 protease = HIV-1 protease (Human immunodeficiency virus type 1 group M subtype B, UniProt P04585); assay: HIV-1 protease-inhibiting activity; type: biochemical; details: half-maximal inhibition of HIV-1 protease
Text: The HIV protease-inhibiting activity of representative compounds of the present invention has been tested by known methods (Brinkworth, R. I., et al., Biochem. Biophys. Res. Commun. 176, 241, (1991); McLeod, D. A., et al., Bioorganic & Medicinal Chemistry Letters (1991) 653-658).

[1] = tested on: Human Immunodeficiency Virus type 1 (HIV) strain #237228 in MT2 cells; assay: Anti-HIV-1 antiviral activity in acutely infected MT2 cells (CPE and RT activity); type: cell-based; details: for IC100: Human immunodeficiency virus 1, 144 h, acute HIV-1 infection, day 6, concentration at which virus replication is inhibited (CPE negative or ±, >95% inhibition of RT activity); for antiviral index (Al), MT2 cells: only non-toxic concentrations used, 8640 min
Text: (§1) The antiviral activity of representative compounds of the present invention has been determined at the Antivirals Laboratory, Fairfield Hospital, Fairfield, Victoria, Australia. In this test a stock solution of each compound was made in DMSO, then diluted in culture medium (RF 10) to 2× the final concentration required for test. The final concentration of DMSO was 1% or below. Approximately 250,000 continuous lymphocytes of human origin (MT2 cells) or 750,000 human peripheral blood lymphocytes (PBLs) were exposed to dilutions of each test compound, then immediately infected with Human Immunodeficiency Virus type 1 (HIV) strain #237228 (a clinical isolate obtained from a human source). The infectivity titers were expressed as tissue culture 50% infective dose (TCID50 per ml) with 1 TCID50 corresponding to the amount of supernatant required to infect 50% of the replicate cell cultures. The 250 and 200 TCID50 were used for MT2 and PBL cells respectively. The cell/drug/virus mixture was then incubated at 37° C./CO2 in a 24-well microtitre plate. Fresh amounts of the appropriate dilution of each drug were added to both MT2 and PBL cultures at day 3. At day 6, the extent of HIV-specific cytopathic effects (CPE) associated with each concentration of test compound in each of the cultures was rated according to the following scale:
(§2) 4+: 75-100% of cells showing 3+: good CPE
(§3) 3+: 50-75% of cells showing 2+: moderate CPE
(§4) 2+: 25-50% of cells showing 1+: low CPE
(§5) 1+: 5-25% of cells showing trace: minimal CPE
(§6) +/-: less than 5% CPE Negative: no CPE
(§7) The activity of the compounds at each concentration was also assessed by their ability to inhibit viron-associated reverse transcriptase (RT) activity in the culture supernates. At the time of rating of CPE, supernatant fluids from each well were removed and RT activity measured using a standard assay. CPE ratings of negative, ± (in MT2 cells) or trace (in PBLs), with greater than 95% inhibition of RT activity, was considered to represent IC100 (the concentration of compound at which the virus replication is inhibited). Control cultures included in each test were:
(§8) (a) HIV-infected cells in the absence of test compound.
(§9) (b) Uninfected cells in the absence of tested compound.
(§10) (c) Cell toxicity control consisting of uninfected cells treated with dilutions of test compound.
(§11) At the conclusion of each experiment, viable cells in these cultures, as determined by tryptan blue exclusion, were compared with the counts obtained in (b), above.

[2] = tested on: Human Immunodeficiency Virus type 1 (HIV) strain #237228 in human peripheral blood lymphocytes (PBLs); assay: Anti-HIV-1 antiviral activity in acutely infected peripheral blood lymphocytes (CPE and RT activity); type: cell-based, Human Immunodeficiency Virus type 1 (HIV); human cells; details: for IC100: Human immunodeficiency virus 1, 144 h, PBL cells, acute HIV-1 infection, day 6, concentration at which virus replication is inhibited (CPE negative or trace, >95% inhibition of RT activity); for antiviral index (Al), PBL cells: only non-toxic concentrations used, 8640 min
Text: as §1, §2, §3, §4, §5, §6, §7, §8, §9, §10, §11

MT2 cells and PBLs = assay: Toxicity to the cells (viable cells, trypan blue exclusion); type: cell-based, human; details: compared to AZT (azidothymidine), in words
Text: as §10, §11

For CC(C)(C)OC(=O)N1CC2CCCCC2CN1CC(O)[C@H](Cc1ccccc1)NC(=O)[C@H](CC(N)=O)NC(=O)c1ccc2ccccc2n1 (stereo partly drawn) [Compound 2a, cis-1,6-3-t-Butoxycarbonyl-4-[(2RS,3S)-2-hydroxy-3-(N-quinaldyl-L-asparaginyl)amino-4-phenylbutyl]-3,4daza-bicylo[4.4.0]decane], the IC50 (HIV-1 protease) was 5.4 ± 0.54 nM, the IC100 [1] was 0.1 µM and the “antiviral index (Al), MT2 cells” value [1] was 50. For the same compound, the IC100 [2] was 0.1 µM and the “antiviral index (Al), PBL cells” value [2] was 100.

CC(C)(C)OC(=O)NN(C[C@H](O)[C@H](Cc1ccccc1)NC(=O)[C@H](CC(N)=O)NC(=O)c1ccc2ccccc2n1)C1CCCCC1 [Compound 17, t-Butyl 3-cyclohexyl-3-[(2S,3S)-2-hydroxy-3-(N-quinaldyl-L-asparaginyl)amino-4-phenylbutyl]carbazate] was tested, and the “toxicity to the cells compared to AZT” value (MT2 cells and PBLs) was “lower toxicity to the cells”, the IC100 [1] was 0.1 µM and the “antiviral index (Al), MT2 cells” value [1] was 100. For the same compound, the IC100 [2] was 0.1 µM and the “antiviral index (Al), PBL cells” value [2] was 200.

With CC(C)N(C[C@@H](O)[C@H](Cc1ccccc1)NC(=O)[C@H](CC(N)=O)NC(=O)c1ccc2ccccc2n1)NC(=O)c1ccccc1NC(=O)OCc1ccccn1 [Compound 8, 1-(2-Pyridyl)methoxycarbonylanthranilyl-2-[(2R,3S)-2-hydroxy-3-(N-quinaldoyl-L-asparaginyl)amino4-phenylbutyl]-2-isopropyl-hydrazine] the “toxicity to the cells compared to AZT” value (MT2 cells and PBLs) was “lower toxicity to the cells”, the IC100 [1] was 0.1 µM and the “antiviral index (Al), MT2 cells” value [1] was greater than 100. The IC100 [2] was 0.1 µM and the “antiviral index (Al), PBL cells” value [2] was greater than 100.

With CC(C)N(C[C@@H](O)[C@H](Cc1ccccc1)NC(=O)[C@H](CC(N)=O)NC(=O)c1ccc2ccccc2n1)NC(=O)OC(C)(C)C [Compound 7A, t-Butyl 3-Isopropyl-3-[(2R,3S)-2-hydroxy-3-(N-quinaldyl-L-asparaginyl)amino-4-phenylbutyl]carbazate] the IC50 (HIV-1 protease) was 7.3 ± 0.7 nM, the IC100 [1] was 1 µM and the “antiviral index (Al), MT2 cells” value [1] was 50. For the same compound, the IC100 [2] was 1 µM and the “antiviral index (Al), PBL cells” value [2] was 25.

With CC(C)N(C[C@H](O)[C@H](Cc1ccccc1)NC(=O)[C@H](CC(N)=O)NC(=O)c1ccc2ccccc2n1)NC(=O)OC(C)(C)C [Compound 7B, t-Butyl 3-isogrooyl-3-[(2S, 3S)-2-hydroxy-3-(N-quinaldyl-L-asparaginyl)amino-4-phenylbutyl]carbazate] the “toxicity to the cells compared to AZT” value (MT2 cells and PBLs) was “lower toxicity to the cells”, the IC50 (HIV-1 protease) was less than 3.5 nM and the IC100 [1] was 0.1 µM. The “antiviral index (Al), MT2 cells” value [1] was 200, the IC100 [2] was 0.1 µM and the “antiviral index (Al), PBL cells” value [2] was greater than 200.
